Results reported in paper PMC11928584, “H105A peptide eye drops promote photoreceptor survival in murine and human models of retinal degeneration” (Communications Medicine, 2025).
Several values for one entry are separate records, joined by “and”; a condition that tells them apart may be missing. Equal values may be shown once. Where a SMILES comes first, the peptide text is derived from it.

Legend:
[1] = Fluorescence distribution of labeled peptides in retinal cross-sections; format: in vivo, C57BL/6J mice; conditions: Alexa Fluor 488-labeled peptide, eye drops, retinal cross-sections 1 h post-administration
Excerpt: Fig. 1 Penetration and bioavailability of PEDF Peptides 17-mer, H105A, and R99A Delivered via Eye Drops in Mouse Retinas. a Peptide mapping and sequence. Tertiary structure of human PEDF highlighting the small peptide region with neurotrophic activity (17-mer) in blue (top). Primary structure of human PEDF showing the location of the 17-mer region (middle). Sequences of the 17-mer peptide and its variants, H105A and R99A (bottom). b In vivo detection of peptides. Fundus micrographs showing fluorescence from Alexa Fluor 488-labeled 17-mer, H105A, and R99A peptides in the eyes of C57BL/6J mice at P21 days after eye drop administration of 5 µl of peptide at 1 mg/ml (left). Fundus images were taken at 1, 3-, 6-, 24-, and 48 h post-administration. Quantification of fluorescence intensity over time post-administration (right). […] The amount of peptide was quantified from the fluorescence in retinal extracts using standard curves (Supplementary Fig. 1a). Each data point represents the amount of each peptide per eye with three eyes (n = 3) per time point. d Retinal cross-sections showing fluorescence distribution in the photoreceptor layer 1 h after applying eye drops as in Panel B. Representative images for labeled 17-mer, H105A, and R99A peptides are shown, with magnified areas of 17-mer and H105A indicated by dotted rectangles. […]

[2] = system: human iPSC-derived retinal organoids exposed to CSE; assay: TUNEL staining of retinal organoid sections; format: cell-based; conditions: Figure 8f, individual values, n=5
Experimental: Human iPSCs were differentiated into retinal organoids (ROs) following the protocol by Zhong et al.[41]. Briefly, on Day 0, hiPSC colonies were dissociated with dispase and grown in a suspension to form embryoid bodies, and slowly transitioned to neural induction media (DMEM/F12 (1:1), 1% N2 supplement (Invitrogen), 1 x minimum essential media-nonessential amino acids (NEAAs), 2 µg/ml heparin (Sigma)). On Day 7, EBs were seeded on Matrigel coated plates and maintained in neural induction media. On Day 16, the media was switched to the retinal differentiation medium (DMEM/F12 (3:1), 2% B27 (without vitamin A, Invitrogen), 1x NEAA and 1% antibiotic–antimycotic (Gibco)). Retinal domains were identified and lifted manually with tungsten needles between Day 21 and Day 26 under a phase contrast microscope. On day 30, the culture medium was transitioned to DMEM/F12 (3:1) with 2% B27, 1x NEAA, 1% antibiotic–antimycotic, 10% fetal bovine serum (FBS; Gibco), […] Taurine (Sigma), and 2 mM GlutaMAX (Invitrogen). Additionally, 1 µM retinoic acid supplement was introduced daily starting from day 63. On day 91, the medium was modified to DMEM/F12 (1:1) supplemented with 1% N2, 1 x NEAAs, 1% antibiotic–antimycotic, 10% FBS, […] Taurine and 2 mM GlutaMAX, and the concentration of retinoic acid supplementation was reduced to 0.5 µM for the remainder of the culture period. The use of hiPSCs in this study conforms to the University of Colorado Institutional Biosafety Committee standards. […]
D180 ROs were treated with each of the 5 experimental conditions, as described above (n = 5 for each condition), washed with PBS three times, and fixed with 4% paraformaldehyde for 10 min at room temperature. […] Fluorescence images were acquired with a Nikon C2 Confocal Microscope A1 (Minato City, Tokyo, Japan) and stitched together using Nikon Elements Software. Images were analysed with Fiji. The relative area of positive immunostaining was calculated as a percentage of total retinal area. […]

distribution of labeled peptide in photoreceptor layer [1]	Compound	Relative TUNEL(+) area ([2]; CSE + peptide 1nM)	Relative TUNEL(+) area ([2]; CSE + peptide 20nM)
decorated the OS in a punctuated fashion	CC[C@H](C)[C@H](NC(=O)[C@H](CC(C)C)NC(=O)[C@H](CC(=O)O)NC(=O)[C@H](Cc1ccc(O)cc1)NC(=O)[C@H](Cc1ccc(O)cc1)NC(=O)[C@H](CC(C)C)NC(=O)[C@H](C)NC(=O)[C@H](CCCNC(=N)N)NC(=O)[C@H](Cc1c[nH]cn1)NC(=O)[C@@H](NC(=O)[C@@H](NC(=O)[C@H](CO)NC(=O)[C@H](CCC(=O)O)NC(=O)[C@@H](NC(=O)[C@H](CCCNC(=N)N)NC(=O)[C@@H](N)CCC(N)=O)[C@@H](C)O)[C@@H](C)CC)[C@@H](C)CC)C(=O)N[C@@H](CO)C(=O)O [17-mer] (H-QRTESIIHRALYYDLIS-OH)		
	CC[C@H](C)[C@H](NC(=O)[C@H](CC(C)C)NC(=O)[C@H](CC(=O)O)NC(=O)[C@H](Cc1ccc(O)cc1)NC(=O)[C@H](Cc1ccc(O)cc1)NC(=O)[C@H](CC(C)C)NC(=O)[C@H](C)NC(=O)[C@H](CCCNC(=N)N)NC(=O)[C@H](C)NC(=O)[C@@H](NC(=O)[C@@H](NC(=O)[C@H](CO)NC(=O)[C@H](CCC(=O)O)NC(=O)[C@@H](NC(=O)[C@H](CCCNC(=N)N)NC(=O)[C@@H](N)CCC(N)=O)[C@@H](C)O)[C@@H](C)CC)[C@@H](C)CC)C(=O)N[C@@H](CO)C(=O)O [H150A] (H-QRTESIIARALYYDLIS-OH)	2.16 and 2.78 and 3.68 and 2.70 and 2.54	1.75 and 2.66 and 2.53 and 2.94 and 1.87
